The values that follow come from patent publication US9750728B2, “Method and pharmaceutical composition for inhibiting PI3K/AKT/mTOR signaling pathway” (TARGETED THERAPEUTICS, LLC, priority 2012, dated 2017).

Each structure is given as a SMILES string. “Also recorded” adds a separate entry of the source.

In one test the test system is Panc-1. As to the kind of experiment: Colony formation assay (clonogenic assay). Format: cell-based. On the procedure:
1.2. Colony formation assay (clonogenic assay) was used to analyze the effect of ZPP or Y29794 on cancer cell survival. 10^3 Panc-1 cells were plated in 100 mm petri dish in triplicate fed with 10 ml of DMEM containing 10% FBS. The cells were then treated by ZPP for 7 days and cultured for additional three weeks. Cells were then rinsed three times with PBS, fixed with 100% ethanol for 15 min, and stained with 2% crystal violet ethanol solution. The stained colonies were counted. All the results are statistically analyzed by one way ANOVA and two tailed t-test.

A further test concerns Panc-1 tumor. Nature of the test: Xenotransplanted Panc-1 pancreatic tumor growth in SCID mice. Type of test: in vivo, SCID mice (BALB/C). On the procedure:
4-6 week-old male SCID mice (BALB/C) were purchased from Charles River laboratories (Wilmington, Mass., USA). Pane-1 cells at about 80% confluence were trypsinized with 0.25% trypsin and 0.02% EDTA. The cell suspension was centrifuged after addition of 10% FBS. 10^6 cells were resuspended in 100 μl PBS buffer containing 10% Matrigel, and injected with a 1-cc syringe with a 27-30 sized needle into the right flank of nude mice under anesthesia. After tumor formation (mean volume 50-60 mm^3) the mice were randomly divided into four groups (6 mice per group): control group, rapamycin treatment group, Y29794 treatment group, and Y29794 plus rapamycin treatment group. Rapamycin and Y29794 were dissolved in Cremophor formulation (20% Cremophor EL, 30% propylene glycol, 50% ethanol). Rapamycin (2 mg/kg body weight) was given by intraperitoneal injection one dose per week. Y29794 (20 mg/kg body weight) was administered by gavage five doses a week. Weekly measurements of tumor size (length, width and depth) and calculation of the tumor volume (½ larger diameter×(smaller diameter)) were carried until the control tumors reached 1000 mm^3.

The test system of another test is PI3K. As to the kind of experiment: PI3K kinase assay in anti-p85 immunoprecipitates. Type of test: cell-based. The conditions noted are these: Panc-1, 24 hours. As for the experimental part:
PI3K kinase assay kit (Calbiochem, Bilerica, Mass., USA) was used to measure the IRS-1-associated or p85-associated PI3K kinase activity in cells. The indicated cells were treated with different conditions for 24 hours. The cells were rinsed three times with pre-cooled PBS, lysed in 500 μl of lysis buffer (150 mmol/L Nacl, 1% Triton-x-100, 50 mmol/1 Tris (pH8.0, 1 mmol/L PMSF, 1 μg/L aprotinin, 1 μg/Lleupeptin, 1 μg/L peptain). Cell lysates (500 μg, in triplicate) of were used for anti-IRS-1 or anti-p85 immunoprecipitation. The immunoprecipitates were resuspended in 200 μl assay buffer and mixed with the fluorescence-labeled PI3K substrate BODIPY-TMR-phosphatidylinositol (100 μM) and ATP (37° C.) for 1 hour. The fluorescence intensity was measured with a fluorometer (excitation wavelength of 540 nm, emission wavelength […]). The difference between fluorescence intensity between control immunoprecipitates (no lysates) and lysate immunoprecipitates was used to indicate PI3K kinase activity. IR-1 anti-rabbit antibody and rabbit anti-PI3K p85 antibody were purchased from Millipore Corporation (Billerica, Mass., USA). Panc-1 anti-p85 immunoprecipitates were used for PI3K kinase assay (FIG. 12) and immunoblot analysis (FIG. 12). Rapamycin treatment in control cells increased PI3K kinase activity (P<0.01).

On to `CC(C)c1ccc(C(=O)c2cccs2)c(SCCCCCCCCN(C)C)n1` [Y29794, [2-[8-(dimethylamino)octylsulfanyl]-6-propan-2-ylpyridin-3-yl]-thiophen-2-ylmethanone], for which the “cell survival (colony formation)” value in the test on Panc-1 (Panc-1, Y29794 25 nM in combination with rapamycin) was “significantly (P<0.01) decreased”. Further, the “cell colonies formed at 21 days, combination” value with Panc-1 (Panc-1, various concentration of rapamycin with 25 nM Y29794, 7 days (FIG. 16C legend)) was “synergistic reduction”. For the same compound, the “tumor growth (tumor volume), combination” value with Panc-1 tumor (Y29794 20 mg/kg by gavage five doses a week plus rapamycin 2 mg/kg intraperitoneal one dose per week) is on record as “synergistic effect; also recorded: inhibited tumor growth (P<0.01) more than Y29794 alone”. The “tumor growth (tumor volume)” value in the test on Panc-1 tumor (Y29794 alone, 20 mg/kg by gavage five doses a week, vs control group, 20 mg/kg) is “significantly reduces; also recorded: significantly inhibited”. Also, the “PI3K kinase activity (p85-associated)” value in the test with PI3K (ZPP 200 μM, Y29794 0.5 μM or rapamycin alone, vs vehicle) is on record as “reduced; also recorded: significantly lower”. Moreover, the “rapamycin-induced increase in PI3K kinase activity (p85-associated)” value with PI3K (rapamycin with ZPP 200 μM or Y29794 0.5 μM) is “blocks; also recorded: inhibited”.
